{"source": "BindingDB's records for doi:10.1021/jm010294e", "about": "(Novartis Institute For Biomedical Reasearch, 2001)", "data": [{"biological_target": "Apolipoprotein B-100 (Homo sapiens, UniProt P04114)", "sequence (P04114 whole entry C1422Y)": "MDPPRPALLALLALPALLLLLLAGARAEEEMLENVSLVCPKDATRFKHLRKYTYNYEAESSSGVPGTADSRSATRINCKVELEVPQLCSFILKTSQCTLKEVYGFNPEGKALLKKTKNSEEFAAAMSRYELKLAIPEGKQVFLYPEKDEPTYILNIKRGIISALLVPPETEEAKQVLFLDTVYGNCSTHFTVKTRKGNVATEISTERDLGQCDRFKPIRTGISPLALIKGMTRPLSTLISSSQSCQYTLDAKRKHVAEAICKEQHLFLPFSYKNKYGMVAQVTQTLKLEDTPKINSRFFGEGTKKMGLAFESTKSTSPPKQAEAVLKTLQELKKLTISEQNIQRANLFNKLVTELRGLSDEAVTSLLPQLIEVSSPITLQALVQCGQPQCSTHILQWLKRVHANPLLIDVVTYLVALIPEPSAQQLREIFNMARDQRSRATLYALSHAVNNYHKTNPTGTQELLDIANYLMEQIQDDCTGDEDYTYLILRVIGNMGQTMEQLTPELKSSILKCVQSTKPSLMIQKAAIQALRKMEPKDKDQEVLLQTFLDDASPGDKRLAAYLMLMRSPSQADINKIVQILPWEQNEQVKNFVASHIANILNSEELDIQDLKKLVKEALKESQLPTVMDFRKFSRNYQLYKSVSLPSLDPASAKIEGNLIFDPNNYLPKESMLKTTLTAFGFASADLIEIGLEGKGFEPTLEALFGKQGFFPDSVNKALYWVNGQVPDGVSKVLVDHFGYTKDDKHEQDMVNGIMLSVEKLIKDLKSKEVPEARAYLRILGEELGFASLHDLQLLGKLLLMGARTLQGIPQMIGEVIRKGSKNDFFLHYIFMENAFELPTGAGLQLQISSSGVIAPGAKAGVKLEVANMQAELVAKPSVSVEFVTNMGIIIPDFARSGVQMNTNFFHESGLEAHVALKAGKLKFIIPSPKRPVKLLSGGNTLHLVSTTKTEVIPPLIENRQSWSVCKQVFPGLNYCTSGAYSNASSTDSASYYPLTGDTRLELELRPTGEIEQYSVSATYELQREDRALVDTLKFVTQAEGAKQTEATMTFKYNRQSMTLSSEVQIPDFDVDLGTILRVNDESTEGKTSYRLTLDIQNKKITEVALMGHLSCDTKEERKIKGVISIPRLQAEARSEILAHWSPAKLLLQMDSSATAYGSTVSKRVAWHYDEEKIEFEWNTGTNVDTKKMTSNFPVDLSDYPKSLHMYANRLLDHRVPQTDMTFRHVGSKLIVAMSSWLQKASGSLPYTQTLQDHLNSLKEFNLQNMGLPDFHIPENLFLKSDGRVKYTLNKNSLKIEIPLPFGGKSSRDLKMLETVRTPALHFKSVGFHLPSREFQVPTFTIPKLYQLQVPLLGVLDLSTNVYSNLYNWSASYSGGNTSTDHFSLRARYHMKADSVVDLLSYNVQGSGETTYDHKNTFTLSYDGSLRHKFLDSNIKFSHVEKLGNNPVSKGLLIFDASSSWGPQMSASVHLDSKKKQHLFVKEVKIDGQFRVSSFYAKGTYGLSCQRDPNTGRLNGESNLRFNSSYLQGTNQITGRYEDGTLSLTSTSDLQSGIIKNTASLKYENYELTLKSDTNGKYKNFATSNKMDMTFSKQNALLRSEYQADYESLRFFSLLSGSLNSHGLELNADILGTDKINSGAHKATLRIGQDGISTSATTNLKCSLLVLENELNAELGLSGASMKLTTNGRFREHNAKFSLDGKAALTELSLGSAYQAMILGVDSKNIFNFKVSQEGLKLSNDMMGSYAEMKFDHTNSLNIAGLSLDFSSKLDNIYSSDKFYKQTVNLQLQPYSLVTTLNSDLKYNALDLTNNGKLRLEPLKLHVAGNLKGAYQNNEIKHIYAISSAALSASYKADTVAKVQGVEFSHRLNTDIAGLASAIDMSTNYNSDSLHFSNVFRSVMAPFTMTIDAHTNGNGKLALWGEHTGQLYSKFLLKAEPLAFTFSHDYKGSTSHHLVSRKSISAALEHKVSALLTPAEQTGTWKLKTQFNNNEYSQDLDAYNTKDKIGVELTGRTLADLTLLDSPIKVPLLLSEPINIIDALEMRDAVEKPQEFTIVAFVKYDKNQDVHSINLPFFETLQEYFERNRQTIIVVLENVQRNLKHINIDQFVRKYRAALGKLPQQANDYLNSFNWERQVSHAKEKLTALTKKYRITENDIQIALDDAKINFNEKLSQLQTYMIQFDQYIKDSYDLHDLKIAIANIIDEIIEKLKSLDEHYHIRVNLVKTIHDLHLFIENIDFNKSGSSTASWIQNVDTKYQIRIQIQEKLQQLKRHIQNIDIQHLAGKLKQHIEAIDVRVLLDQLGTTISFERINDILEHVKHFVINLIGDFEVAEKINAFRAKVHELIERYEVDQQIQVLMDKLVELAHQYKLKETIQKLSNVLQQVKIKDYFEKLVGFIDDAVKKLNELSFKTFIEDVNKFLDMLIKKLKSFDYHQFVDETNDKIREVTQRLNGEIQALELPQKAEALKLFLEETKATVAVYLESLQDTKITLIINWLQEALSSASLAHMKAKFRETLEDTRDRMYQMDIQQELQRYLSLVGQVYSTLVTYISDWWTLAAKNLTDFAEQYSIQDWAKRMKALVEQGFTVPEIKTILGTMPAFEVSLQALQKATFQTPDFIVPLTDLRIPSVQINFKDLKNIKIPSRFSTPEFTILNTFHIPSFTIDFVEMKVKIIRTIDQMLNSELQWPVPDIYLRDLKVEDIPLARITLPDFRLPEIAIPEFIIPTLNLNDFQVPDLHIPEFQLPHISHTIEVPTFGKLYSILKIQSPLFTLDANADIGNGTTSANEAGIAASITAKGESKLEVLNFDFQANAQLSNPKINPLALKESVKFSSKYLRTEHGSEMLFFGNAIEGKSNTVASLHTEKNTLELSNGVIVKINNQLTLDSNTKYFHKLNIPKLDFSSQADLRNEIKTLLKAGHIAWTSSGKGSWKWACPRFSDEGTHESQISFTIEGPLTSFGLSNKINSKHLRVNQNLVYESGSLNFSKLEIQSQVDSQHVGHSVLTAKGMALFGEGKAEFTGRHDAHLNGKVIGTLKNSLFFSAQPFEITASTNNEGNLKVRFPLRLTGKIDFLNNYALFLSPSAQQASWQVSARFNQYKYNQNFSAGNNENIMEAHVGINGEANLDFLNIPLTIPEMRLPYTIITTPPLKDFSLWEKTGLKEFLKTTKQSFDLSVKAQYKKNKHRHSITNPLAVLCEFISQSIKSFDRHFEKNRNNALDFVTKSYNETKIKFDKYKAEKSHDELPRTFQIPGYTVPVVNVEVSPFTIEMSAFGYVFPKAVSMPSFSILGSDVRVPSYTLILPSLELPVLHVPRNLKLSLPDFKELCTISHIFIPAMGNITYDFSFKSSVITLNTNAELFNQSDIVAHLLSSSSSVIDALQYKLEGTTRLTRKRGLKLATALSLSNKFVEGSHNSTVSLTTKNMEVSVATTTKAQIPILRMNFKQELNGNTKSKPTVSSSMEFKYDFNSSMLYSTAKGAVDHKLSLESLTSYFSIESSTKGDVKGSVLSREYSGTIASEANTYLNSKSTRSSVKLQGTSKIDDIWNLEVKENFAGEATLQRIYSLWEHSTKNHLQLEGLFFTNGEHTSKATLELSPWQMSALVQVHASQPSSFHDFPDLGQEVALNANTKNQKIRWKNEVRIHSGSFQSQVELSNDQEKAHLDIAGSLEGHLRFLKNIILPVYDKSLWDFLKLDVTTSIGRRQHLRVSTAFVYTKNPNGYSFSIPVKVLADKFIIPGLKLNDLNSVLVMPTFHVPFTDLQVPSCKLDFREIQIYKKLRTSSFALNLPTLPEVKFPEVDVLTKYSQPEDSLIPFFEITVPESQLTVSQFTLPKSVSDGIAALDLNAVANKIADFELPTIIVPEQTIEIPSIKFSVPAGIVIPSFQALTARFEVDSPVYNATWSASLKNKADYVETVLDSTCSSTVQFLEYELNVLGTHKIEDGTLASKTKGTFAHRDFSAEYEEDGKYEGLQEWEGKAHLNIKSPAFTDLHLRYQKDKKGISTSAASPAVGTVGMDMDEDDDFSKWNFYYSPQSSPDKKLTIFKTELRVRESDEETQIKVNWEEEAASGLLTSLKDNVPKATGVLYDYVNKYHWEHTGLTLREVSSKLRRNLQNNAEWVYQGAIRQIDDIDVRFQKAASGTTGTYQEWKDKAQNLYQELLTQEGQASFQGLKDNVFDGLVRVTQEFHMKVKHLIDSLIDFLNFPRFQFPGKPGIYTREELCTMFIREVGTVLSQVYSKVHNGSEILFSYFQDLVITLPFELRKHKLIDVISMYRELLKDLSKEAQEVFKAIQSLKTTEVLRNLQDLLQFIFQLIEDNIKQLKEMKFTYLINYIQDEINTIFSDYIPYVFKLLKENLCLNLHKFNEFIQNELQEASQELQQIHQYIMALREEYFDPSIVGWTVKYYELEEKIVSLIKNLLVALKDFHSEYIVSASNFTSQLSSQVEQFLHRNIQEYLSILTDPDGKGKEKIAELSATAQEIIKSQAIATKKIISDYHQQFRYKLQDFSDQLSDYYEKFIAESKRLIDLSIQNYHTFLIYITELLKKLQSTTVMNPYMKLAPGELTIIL", "assay": "Inhibition of apolipoprotein B (apoB) secreted by human hepatoma cells (Hep G2) […]", "units": {"IC50": "nM"}, "values": [{"compound": "COc1cccc(C(=O)Nc2ccc3c(c2)CC(NS(=O)(=O)c2ccccc2)C3)c1-c1ccc(Cl)cc1", "note": "(configuration not stated) [4'-Chloro-6-methoxy-biphenyl-2-carboxylic acid (2-benzenesulfonylamino-indan-5-yl)-amide]", "IC50": 2}, {"compound": "COc1cccc(C(=O)Nc2ccc3c(c2)CC(NS(C)(=O)=O)C3)c1-c1ccc(Cl)cc1", "note": "(configuration not stated) [4'-Chloro-6-methoxy-biphenyl-2-carboxylic acid (2-methanesulfonylamino-indan-5-yl)-amide]", "IC50": 15}, {"compound": "Cc1cccc(C(=O)Nc2ccc3c(c2)CC(NS(=O)(=O)c2ccccc2)C3)c1-c1ccc(Cl)cc1", "note": "(configuration not stated) [4'-Chloro-6-methyl-biphenyl-2-carboxylic acid (2-benzenesulfonylamino-indan-5-yl)-amide]", "IC50": 2.4}, {"compound": "Cc1cccc(C(=O)Nc2ccc3c(c2)CC(NS(C)(=O)=O)C3)c1-c1ccc(Cl)cc1", "note": "(configuration not stated) [4'-Chloro-6-methyl-biphenyl-2-carboxylic acid (2-methanesulfonylamino-indan-5-yl)-amide]", "IC50": 6.6}, {"compound": "Cc1cccc(C(=O)Nc2ccc3c(c2)CCC(NS(C)(=O)=O)CC3)c1-c1ccc(Cl)cc1", "note": "(configuration not stated) [4'-Chloro-6-methyl-biphenyl-2-carboxylic acid (7-methanesulfonylamino-6,7,8,9-tetrahydro-5H-benzocyclohepten-2-yl)-amide]", "IC50": 5}, {"compound": "Cc1cccc(C(=O)Nc2ccc3c(c2)CC(CNS(C)(=O)=O)C3)c1-c1ccc(Cl)cc1", "note": "(configuration not stated) [4'-Chloro-6-methyl-biphenyl-2-carboxylic acid [2-(methanesulfonylamino-methyl)-indan-5-yl]-amide]", "IC50": 16}, {"compound": "Cc1cccc(C(=O)Nc2ccc3c(c2)CC(NS(=O)(=O)c2cccs2)C3)c1-c1ccc(Cl)cc1", "note": "(configuration not stated) [4'-Chloro-6-methyl-biphenyl-2-carboxylic acid [2-(thiophene-2-sulfonylamino)-indan-5-yl]-amide]", "IC50": 3}, {"compound": "Cc1cccc(C(=O)Nc2ccc3c(c2)CC(NS(=O)(=O)c2ccccc2)C3)c1-c1ccc(C#N)cc1", "note": "(configuration not stated) [4'-Cyano-6-methyl-biphenyl-2-carboxylic acid (2-benzenesulfonylamino-indan-5-yl)-amide]", "IC50": 5.5}, {"compound": "Cc1cccc(C(=O)Nc2ccc3c(c2)CC(NS(=O)(=O)c2ccccc2)C3)c1-c1ccc(F)cc1", "note": "(configuration not stated) [4'-Fluoro-6-methyl-biphenyl-2-carboxylic acid (2-benzenesulfonylamino-indan-5-yl)-amide]", "IC50": 1.2}, {"compound": "Cc1cccc(C(=O)Nc2ccc3c(c2)CC(NS(C)(=O)=O)C3)c1-c1ccc(F)cc1", "note": "(configuration not stated) [4'-Fluoro-6-methyl-biphenyl-2-carboxylic acid (2-methanesulfonylamino-indan-5-yl)-amide]", "IC50": 8.3}, {"compound": "Cc1cccc(C(=O)Nc2ccc3c(c2)CC(NS(=O)(=O)c2cccs2)C3)c1-c1ccc(F)cc1", "note": "(configuration not stated) [4'-Fluoro-6-methyl-biphenyl-2-carboxylic acid [2-(thiophene-2-sulfonylamino)-indan-5-yl]-amide]", "IC50": 1.4}, {"compound": "CC(=O)NC1Cc2ccc(NC(=O)c3ccccc3-c3ccc(C(F)(F)F)cc3)cc2C1", "note": "(configuration not stated) [4'-Trifluoromethyl-biphenyl-2-carboxylic acid (2-acetylamino-indan-5-yl)-amide]", "IC50": 120}, {"compound": "O=C(Nc1ccc2c(c1)CC(NS(=O)(=O)c1ccccc1)C2)c1ccccc1-c1ccc(C(F)(F)F)cc1", "note": "(configuration not stated) [4'-Trifluoromethyl-biphenyl-2-carboxylic acid (2-benzenesulfonylamino-indan-5-yl)-amide]", "IC50": 1.3}, {"compound": "O=C(Nc1ccc2c(c1)C[C@@H](NS(=O)(=O)c1ccccc1)C2)c1ccccc1-c1ccc(C(F)(F)F)cc1", "note": "[4'-Trifluoromethyl-biphenyl-2-carboxylic acid (2-benzenesulfonylamino-indan-5-yl)-amide]", "IC50": 42}, {"compound": "O=C(NC1Cc2ccc(NC(=O)c3ccccc3-c3ccc(C(F)(F)F)cc3)cc2C1)c1ccccc1", "note": "(configuration not stated) [4'-Trifluoromethyl-biphenyl-2-carboxylic acid (2-benzoylamino-indan-5-yl)-amide]", "IC50": 270}, {"compound": "O=C(Nc1ccc2c(c1)CC(NCc1ccccc1)C2)c1ccccc1-c1ccc(C(F)(F)F)cc1", "note": "(configuration not stated) [4'-Trifluoromethyl-biphenyl-2-carboxylic acid (2-benzylamino-indan-5-yl)-amide]", "IC50": 340}, {"compound": "CS(=O)(=O)NC1Cc2ccc(NC(=O)c3ccccc3-c3ccc(C(F)(F)F)cc3)cc2C1", "note": "(configuration not stated) [4'-Trifluoromethyl-biphenyl-2-carboxylic acid (2-methanesulfonylamino-indan-5-yl)-amide]", "IC50": 60}, {"compound": "CN(C)C(=O)NC1Cc2ccc(NC(=O)c3ccccc3-c3ccc(C(F)(F)F)cc3)cc2C1", "note": "(configuration not stated) [4'-Trifluoromethyl-biphenyl-2-carboxylic acid [2-(3,3-dimethyl-ureido)-indan-5-yl]-amide]", "IC50": 120}, {"compound": "Cc1cc(C)c(-c2ccc(C(F)(F)F)cc2)c(C(=O)Nc2ccc3c(c2)C[C@@H](NS(=O)(=O)c2cccs2)C3)c1", "note": "[4,6-Dimethyl-4'-trifluoromethyl-biphenyl-2-carboxylic acid [2-(thiophene-2-sulfonylamino)-indan-5-yl]-amide]", "IC50": 2.6}, {"compound": "Cc1cc(C)c(-c2ccc(C(F)(F)F)cc2)c(C(=O)Nc2ccc3c(c2)C[C@H](NS(=O)(=O)c2cccs2)C3)c1", "note": "[4,6-Dimethyl-4'-trifluoromethyl-biphenyl-2-carboxylic acid [2-(thiophene-2-sulfonylamino)-indan-5-yl]-amide]", "IC50": 1}, {"compound": "COC(=O)N1CCN([C@@H]2Cc3ccc(NC(=O)c4cccc(C)c4-c4ccc(C(F)(F)F)cc4)cc3C2)CC1", "note": "[4-{5-[(6-Methyl-4'-trifluoromethyl-biphenyl-2-carbonyl)-amino]-indan-2-yl}-piperazine-1-carboxylic acid methyl ester]", "IC50": 43}, {"compound": "COC(=O)N1CCN([C@H]2Cc3ccc(NC(=O)c4cccc(C)c4-c4ccc(C(F)(F)F)cc4)cc3C2)CC1", "note": "[4-{5-[(6-Methyl-4'-trifluoromethyl-biphenyl-2-carbonyl)-amino]-indan-2-yl}-piperazine-1-carboxylic acid methyl ester]", "IC50": 1.8}, {"compound": "Cc1ccc(-c2c(C)cccc2C(=O)Nc2ccc3c(c2)CC(NS(=O)(=O)c2ccccc2)C3)cc1", "note": "(configuration not stated) [6,4'-Dimethyl-biphenyl-2-carboxylic acid (2-benzenesulfonylamino-indan-5-yl)-amide]", "IC50": 2.5}, {"compound": "Cc1cccc(C(=O)Nc2ccc3c(c2)C[C@@H](NS(C)(=O)=O)C3)c1-c1ccc(C(F)(F)F)cc1", "note": "[6-Methyl-4'-trifluoromethyl-biphenyl-2-carboxylic acid (2-methanesulfonylamino-indan-5-yl)-amide]", "IC50": 8.8}, {"compound": "Cc1cccc(C(=O)Nc2ccc3c(c2)C[C@H](NS(C)(=O)=O)C3)c1-c1ccc(C(F)(F)F)cc1", "note": "[6-Methyl-4'-trifluoromethyl-biphenyl-2-carboxylic acid (2-methanesulfonylamino-indan-5-yl)-amide]", "IC50": 1.8}, {"compound": "Cc1cccc(C(=O)Nc2ccc3c(c2)CCC(NS(C)(=O)=O)CC3)c1-c1ccc(C(F)(F)F)cc1", "note": "(configuration not stated) [6-Methyl-4'-trifluoromethyl-biphenyl-2-carboxylic acid (7-methanesulfonylamino-6,7,8,9-tetrahydro-5H-benzocyclohepten-2-yl)-amide]", "IC50": 2.3}, {"compound": "Cc1cccc(C(=O)Nc2ccc3c(c2)CC(CNS(C)(=O)=O)C3)c1-c1ccc(C(F)(F)F)cc1", "note": "(configuration not stated) [6-Methyl-4'-trifluoromethyl-biphenyl-2-carboxylic acid [2-(methanesulfonylamino-methyl)-indan-5-yl]-amide]", "IC50": 6.5}, {"compound": "Cc1cccc(C(=O)Nc2ccc3c(c2)C[C@H](NS(=O)(=O)c2cccs2)C3)c1-c1ccc(C(F)(F)F)cc1", "note": "[6-Methyl-4'-trifluoromethyl-biphenyl-2-carboxylic acid [2-(thiophene-2-sulfonylamino)-indan-5-yl]-amide]", "IC50": 0.9}, {"compound": "Cc1cccc(C(=O)Nc2ccc3c(c2)CCC(NS(=O)(=O)c2cccs2)CC3)c1-c1ccc(C(F)(F)F)cc1", "note": "(configuration not stated) [6-Methyl-4'-trifluoromethyl-biphenyl-2-carboxylic acid [7-(thiophene-2-sulfonylamino)-6,7,8,9-tetrahydro-5H-benzocyclohepten-2-yl]-amide]", "IC50": 1.6}, {"compound": "Cc1cccc(C(=O)Nc2ccc3c(c2)CC(CNS(=O)(=O)c2cccs2)C3)c1-c1ccc(C(F)(F)F)cc1", "note": "(configuration not stated) [6-Methyl-4'-trifluoromethyl-biphenyl-2-carboxylic acid {2-[(thiophene-2-sulfonylamino)-methyl]-indan-5-yl}-amide]", "IC50": 1.9}, {"compound": "COC(=O)NCCC1Cc2ccc(NC(=O)c3cccc(C)c3-c3ccc(C(F)(F)F)cc3)cc2C1", "note": "(configuration not stated) [(2-{5-[(6-Methyl-4'-trifluoromethyl-biphenyl-2-carbonyl)-amino]-indan-2-yl}-ethyl)-carbamic acid methyl ester]", "IC50": 10}, {"compound": "COC(=O)N[C@@H]1Cc2ccc(NC(=O)c3cccc(C)c3-c3ccc(C(F)(F)F)cc3)cc2C1", "note": "[(R)-methyl 5-(6-methyl-4'-(trifluoromethyl)biphenyl-2-ylcarboxamido)-2,3-dihydro-1H-inden-2-ylcarbamate]", "IC50": 6.4}, {"compound": "Cc1cccc(C(=O)Nc2ccc3c(c2)C[C@@H](NCc2ccccn2)C3)c1-c1ccc(C(F)(F)F)cc1", "note": "[(S)-6-methyl-N-(2-(pyridin-2-ylmethylamino)-2,3-dihydro-1H-inden-5-yl)-4'-(trifluoromethyl)biphenyl-2-carboxamide]", "IC50": 1.7}, {"compound": "O=C(Nc1ccc2c(c1)CC(NS(=O)(=O)c1ccccc1)C2)c1ccccc1-c1ccccc1", "note": "(configuration not stated) [Biphenyl-2-carboxylic acid (2-benzenesulfonylamino-indan-5-yl)-amide]", "IC50": 12}, {"compound": "COC(=O)NC1CCc2ccc(NC(=O)c3cccc(C)c3-c3ccc(Cl)cc3)cc2CC1", "note": "(configuration not stated) [{2-[(4'-Chloro-6-methyl-biphenyl-2-carbonyl)-amino]-6,7,8,9-tetrahydro-5H-benzocyclohepten-7-yl}-carbamic acid methyl ester]", "IC50": 2}, {"compound": "COC(=O)NC1CCc2ccc(NC(=O)c3cc(C)cc(C)c3-c3ccc(C(F)(F)F)cc3)cc2CC1", "note": "(configuration not stated) [{2-[(4,6-Dimethyl-4'-trifluoromethyl-biphenyl-2-carbonyl)-amino]-6,7,8,9-tetrahydro-5H-benzocyclohepten-7-yl}-carbamic acid methyl ester]", "IC50": 2.4}, {"compound": "COC(=O)NC1CCc2ccc(NC(=O)c3cccc(C)c3-c3ccc(C(F)(F)F)cc3)cc2CC1", "note": "(configuration not stated) [{2-[(6-Methyl-4'-trifluoromethyl-biphenyl-2-carbonyl)-amino]-6,7,8,9-tetrahydro-5H-benzocyclohepten-7-yl}-carbamic acid methyl ester]", "IC50": 1.6}]}]}
